Here are results for 11 compounds from patent US5112846A, “N-hydroxyamide, N-hydroxythioamide, hydroxyurea, and N-hydroxythiourea derivatives of selected nsaids as antiinflammatory agents” (Warner-Lambert Company, priority 1990, dated 1992).

For one test, the target named is T1, 5-Lipoxygenase (Rattus norvegicus, UniProt P12527).
T1 construct: host or cells: RBL-1 rat basophilic leukemia cells
T1 sequence (P12527 1-673): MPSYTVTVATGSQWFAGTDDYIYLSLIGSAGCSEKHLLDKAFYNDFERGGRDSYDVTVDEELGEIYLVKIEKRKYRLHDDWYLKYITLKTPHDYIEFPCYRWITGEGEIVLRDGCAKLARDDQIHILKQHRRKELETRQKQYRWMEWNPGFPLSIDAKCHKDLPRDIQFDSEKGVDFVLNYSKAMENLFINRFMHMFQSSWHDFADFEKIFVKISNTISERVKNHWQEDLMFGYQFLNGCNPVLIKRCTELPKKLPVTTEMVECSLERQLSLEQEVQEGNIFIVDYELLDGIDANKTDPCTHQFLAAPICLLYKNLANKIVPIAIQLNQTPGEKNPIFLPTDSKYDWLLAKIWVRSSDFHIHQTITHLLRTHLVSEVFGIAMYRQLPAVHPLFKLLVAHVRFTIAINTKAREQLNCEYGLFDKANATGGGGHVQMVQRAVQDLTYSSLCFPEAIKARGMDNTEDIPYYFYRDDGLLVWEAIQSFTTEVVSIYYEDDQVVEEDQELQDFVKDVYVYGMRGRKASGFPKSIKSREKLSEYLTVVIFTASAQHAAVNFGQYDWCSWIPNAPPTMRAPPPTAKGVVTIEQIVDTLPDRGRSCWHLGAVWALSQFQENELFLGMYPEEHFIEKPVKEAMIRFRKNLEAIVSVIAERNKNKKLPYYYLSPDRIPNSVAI
As to the kind of experiment: ARBL whole cell 5-lipoxygenase assay (LTB4 formation in RBL-1 cells, A23187 stimulated). In kind it is cell-based. The conditions noted are these: RBL-1 cells; for IC50: read-out: ARBL IC50 (inhibition of LTB4 formation); for inhibition at 16 µM: read-out: ARBL % inhibition of LTB4. The protocol: (§1) ARBL/ARBC Whole Cell 5-Lipoxygenase and Cyclooxygenase Assays
(§2) The rat basophilic leukemia cell line (RBL-1) was obtained from the American Type Culture Collection (Rockville, MD).
(§3) Radioimmunoassay (RIA) kits of LTB4 and PGF2α were obtained from Amersham (Arlington Heights, IL) and Seragen (Boston, MA), respectively.
(§4) RBL-1 cells are grown in suspension culture in Eagle's minimum essential medium supplemented with 12% fetal bovine serum at 37° C. in an incubator supplied with air-5% carbon dioxide. Cells are harvested by centrifugation. They are washed with cold phosphate buffered saline pH 7.4 (PBS; NaCl, 7.1 g; Na2 HPO4, 1.15 g; KH2 PO4, 0.2 g; and KCl, 0.2 g/l). Cells are finally suspended in PBS containing 1.0 mM calcium at a density of 2×10^6 cells/ml. Cells are incubated with and without test agent (in DMSO) (1% DMSO is without effect on arachidonic acid metabolism) for ten minutes at room temperature. Calcium ionophore A23187 (5 μM) is added and cells are incubated for seven minutes at 37° C. The reaction is stopped by chilling the tubes on ice for ten minutes. Cells are separated by centrifugation and the supernatant is stored at -20° C. Aliquots (100 μl) are analyzed for LTB4 and PGF2α using radioimmunoassay kits as provided by the supplier.
(§5) Tables 1-4 contain biochemical data obtained from this whole cell assay either as IC50 s which are calculated as the amount of test compound causing 50% inhibition of LTB4 or PGF2α formation or % inhibition of LTB4 or PGF2α at the indicated amount expressed as μM.

The next test addresses T2, Cyclooxygenase (Rattus norvegicus, UniProt Q63921).
T2 construct: host or cells: RBL-1 rat basophilic leukemia cells
T2 sequence (Q63921 27-602): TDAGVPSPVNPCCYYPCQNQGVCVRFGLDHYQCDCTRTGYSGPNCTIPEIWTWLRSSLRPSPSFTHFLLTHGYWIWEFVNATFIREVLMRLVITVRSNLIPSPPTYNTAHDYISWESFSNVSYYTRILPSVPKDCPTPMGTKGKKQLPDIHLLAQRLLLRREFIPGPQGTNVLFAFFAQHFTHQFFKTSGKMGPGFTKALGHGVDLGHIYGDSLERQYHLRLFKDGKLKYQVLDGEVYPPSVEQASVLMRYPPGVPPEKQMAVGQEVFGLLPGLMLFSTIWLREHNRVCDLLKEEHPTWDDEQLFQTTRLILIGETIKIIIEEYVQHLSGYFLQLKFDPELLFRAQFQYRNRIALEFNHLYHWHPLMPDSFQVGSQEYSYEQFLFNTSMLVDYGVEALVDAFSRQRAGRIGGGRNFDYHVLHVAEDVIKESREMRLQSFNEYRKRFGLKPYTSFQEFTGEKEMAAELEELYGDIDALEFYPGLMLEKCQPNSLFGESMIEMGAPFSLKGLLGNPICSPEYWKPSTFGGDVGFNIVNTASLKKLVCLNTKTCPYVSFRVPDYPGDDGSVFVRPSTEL
Put plainly: ARBC whole cell cyclooxygenase assay (PGF2α formation in RBL-1 cells, A23187 stimulated). Conditions: for inhibition at 32 µM: RBL-1, Table 3, read-out: ARBC % inhibition (N @ 32); for IC50 / inhibition at 16 µM: RBL-1 cells; for IC50: read-out: ARBC IC50 (inhibition of PGF2α formation); for inhibition at 16 µM: read-out: ARBC % inhibition of PGF2α. Format: cell-based. How it is done:
as §1, §2, §3, §4, §5

Broadly, the IC50 is the concentration that gives 50% inhibition. The inhibition is the change of the read-out against control, counted positive when it falls.

Bounds are passed on as bounds.

Turning to `CC(=O)N(O)Cc1ccccc1Nc1c(Cl)cccc1Cl` [Example 48, N-[[(2,6-Dichlorophenyl)amino]phenyl]methyl-N-hydroxyacetamide], the IC50 on 5-Lipoxygenase stood at 1300 nM. Moreover, at Cyclooxygenase, the inhibition at 32 µM was below 40%.
For `CC(=O)N(O)C(C)c1ccccc1Nc1c(Cl)ccc(C)c1Cl` (stereo not shown) [Example 53, N-[1-[2-[(2,6-dichloro-3-methylphenyl)amino]phenyl]ethyl]-N-hydroxyacetamide] the same measures were 1800 nM and below 40%.
In the case of `CC(=O)N(O)Cc1ccccc1Nc1c(Cl)ccc(C)c1Cl` [Example 54, N-[[2-[(2,6-Dichloro-3-methylphenyl)amino]phenyl]methyl]-N-hydroxyacetamide], the IC50 is 180 nM on 5-Lipoxygenase and 5000 nM on Cyclooxygenase.
In the same order, the values of `CC(=O)N(O)Cc1ccccc1Nc1cccc(C(F)(F)F)c1` [Example 55] are 280 nM and 5200 nM.
For `CNC(=O)N(O)Cc1ccccc1Nc1cccc(C(F)(F)F)c1` [Example 56] the same measures were 120 nM and 2200 nM.
Consider `CCOC(=O)N(O)Cc1ccccc1Nc1cccc(C(F)(F)F)c1` [Example 57, N-Hydroxy-N-[[2-[[3-(trifluoromethyl)phenyl]amino]phenyl]methyl]carbamic acid, ethyl ester], for which the figures for the inhibition at 16 µM at 5-Lipoxygenase and at Cyclooxygenase were 100% and 91%, respectively.
Turning to `CCOC(=O)CC(=O)N(O)Cc1c(C)n(C(=O)c2ccc(Cl)cc2)c2ccc(OC)cc12` [Example 64, 3-[[[1-(4-Chlorobenzoyl)-5-methoxy-2-methyl-1H-indol-3-yl]methyl]hydroxyamino]-3-oxo-propanoic acid, ethyl ester], the IC50 on 5-Lipoxygenase is 1100 nM; on Cyclooxygenase, 14000 nM.
For `COC(=O)CCC(=O)N(O)Cc1c(C)n(C(=O)c2ccc(Cl)cc2)c2ccc(OC)cc12` [Example 65, 4-[[[1-(4-Chlorobenzoyl)-5-methoxy-2-methyl-1H-indol-3-yl]methyl]hydroxyamino]-4-oxo-butanoic acid, methyl ester] the same measures were 1300 nM and 9400 nM.
For the compound `COc1ccc2c(c1)c(CN(O)C(=O)N(C)C)c(C)n2C(=O)c1ccc(Cl)cc1` [Example 70, 1-(4-Chlorobenzoyl)-N-[(dimethylamino)carbonyl]-N-hydroxy-5-methoxy-2-methyl-1H-indole-3-methanamine], the figures for the inhibition at 16 µM at 5-Lipoxygenase and on Cyclooxygenase were 100% and 73%, respectively.
For `C=CCNC(=O)N(O)Cc1c(C)n(C(=O)c2ccc(Cl)cc2)c2ccc(OC)cc12` [Example 71, 1-(4-Chlorobenzoyl)-N-hydroxy-5-methoxy-2-methyl-N-[(2-propenylamino)carbonyl]-1H-indole-3-methanamine] the same measures were 100% and 50%.
With `CNC(=S)N(O)Cc1c(C)n(C(=O)c2ccc(Cl)cc2)c2ccc(OC)cc12` [Example 74, 1-(4-Chlorobenzoyl)-N-hydroxy-5-methoxy-2-methyl-N-[(methylamino)thioxomethyl]-1H-indole-3-methanamine], the IC50 on 5-Lipoxygenase was 400 nM; on Cyclooxygenase it was 7100 nM.
